Reference: PMC5866846 (Archives of Toxicology, 2017)

Legend:
[1] = Formation of Met E and Tam-Bis from precursors in pooled human liver microsomes with and without NADPH-regenerating system; format: in vitro ADME; conditions: DM-Tam, DDM-Tam, 50 µM, pooled HLM
Procedure: The reaction was started by adding a NADPH regenerating system (5 mM MgCl2, 5 mM glucose-6-phosphate, 0.5 mM NADP^+ and 10 U glucose-6-phosphate-dehydrogenase in 100 mM sodium phosphate buffer pH 7.4) to the samples and immediately put in a 37 °C water bath for 30 min. The reaction was stopped with the same volume of acetonitrile (ACN) containing 1% of acetic acid together with the corresponding deuterated internal standards. Regarding incubations with Supersomes™ containing UGTs, 5 µg of protein was incubated with 250 mM MgCl2 and 2.5 ng of alamethicin for 30 min on ice, followed by 10 min at 37 °C in a water bath. […] Metabolites were analyzed by HPLC-ESI-MS/MS.
Protein was precipitated by the addition of ACN containing 1% of acetic acid and the corresponding deuterated internal standards to the same volume of the sample followed by centrifugation at 20.000 g for 15 min at RT. […] Analytes were separated on a Zorbax Eclipse Plus C18 column (1.8 µm, 100 × 2.1 mm, Agilent technologies) and detected on a 6460 triple quadrupole mass spectrometer (Agilent technologies) in positive ESI MRM mode. Glucuronides of estrogen-like metabolites were detected separately via MS/MS-measurements in negative ESI MRM mode. […]

[2] = Formation kinetics of Tam-Bis, (Z)- and (E)-Met E in HLM with increasing substrate concentrations; format: in vitro ADME, human; conditions: substrate 1 to 50 µM, Michaelis-Menten
Procedure: The reaction was started by adding a NADPH regenerating system (5 mM MgCl2, 5 mM glucose-6-phosphate, 0.5 mM NADP^+ and 10 U glucose-6-phosphate-dehydrogenase in 100 mM sodium phosphate buffer pH 7.4) to the samples and immediately put in a 37 °C water bath for 30 min. The reaction was stopped with the same volume of acetonitrile (ACN) containing 1% of acetic acid together with the corresponding deuterated internal standards. Regarding incubations with Supersomes™ containing UGTs, 5 µg of protein was incubated with 250 mM MgCl2 and 2.5 ng of alamethicin for 30 min on ice, followed by 10 min at 37 °C in a water bath. Subsequently, the Supersomes™ were incubated with 10 µM of substrates (Tam-Bis, (E)- and (Z)-Met E) and the glucuronidation was started by addition of 10 mM of uridine 5′-diphospho-glucuronic acid to the samples in a water bath at 37 °C for 30 min. The reaction was stopped as described above. Metabolites were analyzed by HPLC-ESI-MS/MS.
For the assessment of formation kinetics of Tam-Bis, (E)- and (Z)-Metabolite E, HLM were incubated with increasing substrate concentrations ranging from 1 to 50 µM as described above. As control for each concentration a sample without NADPH-regenerating system was prepared. […]

[3] = test system: single CYP isoenzymes (Supersomes); assay: Formation of estrogen-like metabolites in Supersomes specific for single CYP isoenzymes; format: in vitro ADME; conditions: 50 µM precursors
Source text: Supersomes™ were obtained from Corning Incorporated, Wiesbaden, Germany, and were specific for CYP isoenzymes CYP1A1, 1A2, 2A6, 2B6, 2C8, 2C9, 2C19, 2D6, 3A4, 3A5 and 19A1. All Supersomes™ contained oxidoreductase. Cytochrome b5 was present in the Supersomes™ of CYP2A6, 2B6, 2C8, 2C9, 3A4 and 3A5. UDP-glucuronosyltransferases (UGT)containing Supersomes™ were specific for the following isoenzymes: 1A1, 1A2, 1A3, 1A4, 1A6, 1A7, 1A8, 1A9, 1A10, 2B4, 2B7, 2B10, 2B15 and 2B17.
The reaction was started by adding a NADPH regenerating system (5 mM MgCl2, 5 mM glucose-6-phosphate, 0.5 mM NADP^+ and 10 U glucose-6-phosphate-dehydrogenase in 100 mM sodium phosphate buffer pH 7.4) to the samples and immediately put in a 37 °C water bath for 30 min. The reaction was stopped with the same volume of acetonitrile (ACN) containing 1% of acetic acid together with the corresponding deuterated internal standards. […] Metabolites were analyzed by HPLC-ESI-MS/MS.
Protein was precipitated by the addition of ACN containing 1% of acetic acid and the corresponding deuterated internal standards to the same volume of the sample followed by centrifugation at 20.000 g for 15 min at RT. […] Glucuronides of estrogen-like metabolites were detected separately via MS/MS-measurements in negative ESI MRM mode.

[4] = test system: upcyte hepatocytes 653-03 and 653-03 2D6; assay: Tam metabolism in upcyte hepatocytes, cell strain not distinguished; format: in vitro ADME, human; conditions: 1 µM Tam, all time points
Procedure: The medium was replaced every 2–3 days. […].
The culture medium was collected after 24, 48, 72, 96 and 144 h followed by metabolite measurements using HPLC-ESI-MS/MS.
Protein was precipitated by the addition of ACN containing 1% of acetic acid and the corresponding deuterated internal standards to the same volume of the sample followed by centrifugation at 20.000 g for 15 min at RT. […] Analytes were separated on a Zorbax Eclipse Plus C18 column (1.8 µm, 100 × 2.1 mm, Agilent technologies) and detected on a 6460 triple quadrupole mass spectrometer (Agilent technologies) in positive ESI MRM mode. Glucuronides of estrogen-like metabolites were detected separately via MS/MS-measurements in negative ESI MRM mode.
[…]. […] […].

[5] = test system: CYP1A2; assay: CYP1A2 activity in upcyte hepatocytes after treatment (probe substrate cocktail); conditions: human, EC50 of induction of CYP1A2 activity, 50 pM to 5 µM
Procedure: (§1) Cells were cultivated in hepatocyte culture medium at 37 °C and 5 °% CO2 in a humidified incubator. Before starting experiments, cells were cultivated in hepatocyte culture medium containing 0.5% (v/v) DMSO (Preculture medium) for 5 days (density of 0.8 × 10^4 cells/cm^2) and were subcultivated in high-performance medium containing 0.1% (v/v) DMSO (Metabolism conditioning medium) for 3–5 days (density of 1.6 × 10^5 cells/cm^2, confluence). The medium was replaced every 2–3 days.
(§2) In HLM and supersome™ incubations the formation rate is given as nmol µg^−1 min^−1 and fmol pmol^−1 min^−1, respectively, and was calculated as the mean ± SD. […] The intrinsic Clearance (Clint) was given as Vmax/Km ratio. […] Activity of CYP enzymes in induction assays is given as the fold-change (mean ± SD) compared to the corresponding DMSO-treated control. […] Gene expression patterns of treated cells are given as fold-change compared to the corresponding DMSO-treated control samples, as described above. […] In induction and inhibition experiments corresponding EC50 and IC50 values were calculated by nonlinear regression. In all experiments a level of probability (p) ≤ 0.05 for statistical testing was considered significant.
(§3) As control 0.05 % DMSO was used. The basal CYP activity and induction of CYP activity compared to the DMSO control were measured via HPLC-ESI-MS/MS.

[6] = test system: CYP2B6; assay: CYP2B6 activity in upcyte hepatocytes after treatment (probe substrate cocktail)
Procedure: as §1, §2, §3

[7] = test system: CYP3A4; assay: CYP3A4 activity in upcyte hepatocytes after treatment (probe substrate cocktail)
Procedure: as §1, §2, §3

[8] = test system: CYP3A4 gene expression; assay: CYP3A4 gene expression in upcyte hepatocytes (Fluidigm RT-PCR)
Source text: (§4) Total RNA was isolated from cells using the Direct-zol™ RNA MiniPrep kit (Zymo Research Corp., Irvine, California). cDNA was synthesized using TaqMan Reverse Transcription Reagents (Life technologies, Applera GmbH, Darmstadt, Germany) and the expression of 25 genes representative of phase I and phase II drug metabolism and transport was quantified by Fluidigm’s BioMark HD high-throughput quantitative chip platform (Fluidigm Corporation, San Francisco, USA). For relative gene expression analysis, the delta-delta-Ct (ΔΔCt) method was used: the Ct values of the target mRNA were first normalized to those of the endogenous control glyceraldehyde-3-phosphate dehydrogenase (GAPDH) followed by dividing values of experimental samples by their corresponding DMSO-treated controls to calculate the x-fold changes of mRNA expression.
as §2, §3

[9] = test system: estrogen receptor; design: method as in Johnson et al. [1989]; Murphy et al. [1990]; conditions: in vitro, estrogen-dependent breast cancer cell lines; ref Johnson et al. [1989]; Murphy et al. [1990]; cited from earlier work
[10] = molecular target: T1, CYP2C8 (Homo sapiens, UniProt P10632); assay: CYP2C8 activity in upcyte hepatocytes after treatment (probe substrate cocktail); format: cell-based; design: host or cells: upcyte hepatocytes 653-03 and 653-03 #138 (653-03 2D6); conditions: human, probe amodiaquine (5 µM), upcyte hepatocytes, 50 pM to 5 µM, read-out: EC50 of induction of CYP2C8 activity
T1 sequence (P10632 1-490): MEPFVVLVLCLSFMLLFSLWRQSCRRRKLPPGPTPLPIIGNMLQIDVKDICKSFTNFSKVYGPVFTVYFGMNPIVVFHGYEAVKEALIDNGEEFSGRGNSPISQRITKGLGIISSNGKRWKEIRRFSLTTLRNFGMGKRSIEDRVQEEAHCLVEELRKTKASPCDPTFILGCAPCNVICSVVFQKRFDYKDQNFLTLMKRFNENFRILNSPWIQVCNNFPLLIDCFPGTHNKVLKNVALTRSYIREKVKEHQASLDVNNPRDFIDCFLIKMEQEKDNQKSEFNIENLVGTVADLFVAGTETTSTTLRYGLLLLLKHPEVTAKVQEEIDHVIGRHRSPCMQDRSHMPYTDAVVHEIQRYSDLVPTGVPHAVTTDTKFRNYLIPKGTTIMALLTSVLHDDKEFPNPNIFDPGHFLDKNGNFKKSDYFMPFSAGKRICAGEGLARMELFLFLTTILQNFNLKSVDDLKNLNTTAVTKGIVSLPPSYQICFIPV
Procedure: as §1, §2, §3

[11] = molecular target: CYP2C9 (Homo sapiens, UniProt P11712); assay: CYP2C9 activity in upcyte hepatocytes after treatment (probe substrate cocktail); format: cell-based; design: host or cells: upcyte hepatocytes 653-03 and 653-03 #138 (653-03 2D6); conditions: 5 µM, 72 h
Procedure: as §1, §2, §3

[12] = molecular target: CYP2C19 (Homo sapiens, UniProt P33261); assay: CYP2C19 activity in upcyte hepatocytes after treatment (probe substrate cocktail); format: cell-based; design: host or cells: upcyte hepatocytes 653-03 and 653-03 #138 (653-03 2D6); conditions: human, probe S-mephenytoin (100 µM), upcyte hepatocytes, 50 pM to 5 µM, read-out: EC50 of induction of CYP2C19 activity
Procedure: as §1, §2, §3

[13] = test system: SLC22A7 gene expression; assay: SLC22A7 gene expression in upcyte hepatocytes (Fluidigm RT-PCR); format: cell-based, human; conditions: phenobarbital 2 mM, 72 h
Source text: as §4
(§5) In HLM and supersome™ incubations the formation rate is given as nmol µg^−1 min^−1 and fmol pmol^−1 min^−1, respectively, and was calculated as the mean ± SD. […] The intrinsic Clearance (Clint) was given as Vmax/Km ratio. […] In induction and inhibition experiments corresponding EC50 and IC50 values were calculated by nonlinear regression. […]
as §3

[14] = test system: CYP2C8 gene expression; assay: CYP2C8 gene expression in upcyte hepatocytes (Fluidigm RT-PCR); format: cell-based, human; conditions: phenobarbital 2 mM, 72 h; 'up to' = strongest decrease
Source text: (§6) Differences between induced and control samples were compared using Welch’s t-test (GraphPad Prism, version 5.04), when the fold-change was considered biologically relevant (1.5-fold increase or decrease in fold-changes) and corrected for multiple testing according to Bonferroni. […] An unpaired t-test assuming unequal variances was used for testing of differences in the expression patterns, when the fold-change was considered biologically relevant (1.5-fold increase or decrease in fold-changes) and corrected using Bonferroni adjustments.
(§7) As control 0.05 % DMSO was used.

[15] = test system: CYP2C19 gene expression; assay: CYP2C19 gene expression in upcyte hepatocytes (Fluidigm RT-PCR); format: cell-based, human; conditions: phenobarbital 2 mM, 72 h
Source text: as §6, §7

[16] = test system: CYP2E1 gene expression; assay: CYP2E1 gene expression in upcyte hepatocytes (Fluidigm RT-PCR); format: cell-based, human; conditions: phenobarbital 2 mM, 72 h; 'up to' = strongest decrease
Source text: as §6, §7

[17] = test system: SULT1B1 gene expression; assay: SULT1B1 gene expression in upcyte hepatocytes (Fluidigm RT-PCR); format: cell-based, human; conditions: phenobarbital 2 mM, 72 h; 'up to' = strongest decrease
[18] = test system: UGT1A1 gene expression; assay: UGT1A1 gene expression in upcyte hepatocytes (Fluidigm RT-PCR); format: cell-based, human; conditions: phenobarbital 2 mM, 72 h, both strains
Source text: as §4, §5, §3

[19] = test system: SLCO1B1 gene expression; assay: SLCO1B1 gene expression in upcyte hepatocytes (Fluidigm RT-PCR); format: cell-based, human; conditions: phenobarbital 2 mM, 72 h
Source text: as §4, §5, §3

[20] = test system: NAT1 gene expression; assay: NAT1 gene expression in upcyte hepatocytes (Fluidigm RT-PCR); format: cell-based, human; conditions: phenobarbital 2 mM, 72 h; 'up to' = strongest decrease
[21] = test system: CYP3A4; conditions: hepatocytes

Sequence of CYP2C19 (P33261 whole entry): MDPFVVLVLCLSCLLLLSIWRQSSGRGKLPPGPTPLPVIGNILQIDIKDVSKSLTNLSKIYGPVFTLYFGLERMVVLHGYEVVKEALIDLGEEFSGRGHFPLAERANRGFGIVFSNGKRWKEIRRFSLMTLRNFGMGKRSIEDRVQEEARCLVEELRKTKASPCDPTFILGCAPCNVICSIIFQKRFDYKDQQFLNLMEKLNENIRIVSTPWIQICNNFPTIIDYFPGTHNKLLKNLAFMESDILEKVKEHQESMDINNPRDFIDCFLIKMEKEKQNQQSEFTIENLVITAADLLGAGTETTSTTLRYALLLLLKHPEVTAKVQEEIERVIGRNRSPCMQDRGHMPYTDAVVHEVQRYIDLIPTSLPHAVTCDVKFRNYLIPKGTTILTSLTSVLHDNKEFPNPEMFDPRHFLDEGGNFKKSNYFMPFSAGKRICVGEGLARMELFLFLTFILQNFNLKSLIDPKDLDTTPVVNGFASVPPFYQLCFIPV
Sequence of CYP2C9 (P11712 whole entry): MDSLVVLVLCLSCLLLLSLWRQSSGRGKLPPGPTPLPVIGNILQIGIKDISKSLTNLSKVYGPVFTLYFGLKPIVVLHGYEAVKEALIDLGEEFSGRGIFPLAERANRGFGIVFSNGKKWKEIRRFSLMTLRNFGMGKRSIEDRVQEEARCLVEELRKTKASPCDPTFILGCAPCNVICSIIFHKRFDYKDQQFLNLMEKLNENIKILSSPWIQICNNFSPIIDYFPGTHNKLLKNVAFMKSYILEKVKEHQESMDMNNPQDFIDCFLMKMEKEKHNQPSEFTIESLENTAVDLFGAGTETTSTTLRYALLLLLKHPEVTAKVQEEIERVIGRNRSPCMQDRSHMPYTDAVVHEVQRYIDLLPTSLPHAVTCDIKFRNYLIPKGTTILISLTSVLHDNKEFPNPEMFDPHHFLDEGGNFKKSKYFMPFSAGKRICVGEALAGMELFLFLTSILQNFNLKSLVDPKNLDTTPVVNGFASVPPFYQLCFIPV

## CCC(=C(c1ccccc1)c1ccc(O)cc1)c1ccccc1 [(E)-Met E, 4-[1,2-diphenylbut-1-en-1-yl]phenol]
[1]
  formation rate of the (E)-isomer compared to (Z)-Met E: approximately 10%
[2]
  V max, Bisphenol formation: 8.1 pmol/mg/min
[2]; read-out: Km, Bisphenol formation
  Km: 10.4 µM
[3]
  formation rates lower than those of the (Z)-isomer: approximately 10 times
[4]
  concentration of the (E)-isomer relative to (Z)-Met E: about 10%
[5]
  EC50 at 72 h: > 5 µM
[6]; human, probe bupropion (25 µM)
  EC50 at 72 h: > 5 µM
[7]; 5 µM, 72 h, parental and derived cell line
  induction of CYP3A4 activity compared to DMSO control: weakly induced
[7]; human, probe atorvastatin (35 µM), EC50 of induction of CYP3A4 activity, upcyte hepatocytes, 72 h, 50 pM to 5 µM
  EC50 at 72 h: 0.277 µM
[8]; 5 µM, 72 h, both cell strains
  CYP3A4 gene expression, induction vs DMSO control: up to 5.6 fold
[9]
  agonism regarding estrogen-regulated mRNA expression: full agonists
[10]
  EC50 at 72 h: > 5 µM
[11]
  induction of CYP2C9 activity: weakly induced
[12]
  EC50 at 72 h: > 5 µM

## CCC1(c2ccccc2)C(=O)NC(=O)NC1=O [PB, phenobarbital]
[6]; phenobarbital 2 mM, 72 h, both cell lines
  induction of CYP2B6 activity: induced
[7]; hepatocytes
  induction of CYP3A4 activity: induced
[8]; human, hepatocytes
  CYP3A4 gene expression, induction: ≤ 9 fold
[13]
  SLC22A7 gene expression: down regulated
[14]
  CYP2C8 gene expression, decreased to x-fold of control: up to 0.3 fold
[15]
  CYP2C19 gene expression, induction: up to 1.5 fold
[16]
  CYP2E1 gene expression, decreased to x-fold of control: ≤ 0.2 fold
[17]
  SULT1B1 gene expression, down regulated to x-fold of control: up to 0.5 fold
[18]
  UGT1A1 gene expression, induction: 1.8 fold
[19]
  SLCO1B1 gene expression, induction: up to 2.9 fold
[20]
  NAT1 gene expression, down regulated to x-fold of control: up to 0.5 fold
[21]
  protein expression of CYP3A4 (Western blot): induced
